{"source": "patent US20250074891A1", "about": "(Anaxis Pharma Pty Ltd., priority 2021, published 2025)", "key": {"U937 cells": {"system": "U937 cells", "test": "Counter screen: cell viability without TSQ cocktail (off-target effect)", "design": "species or system human", "conditions": "Homo sapiens, U-937, Table 38, read-out: Off-target effect (IC50 cell-based assay)", "protocol": "Counter screen: In parallel, all compounds were tested for their ability to affect cell viability. The same U937 cells were treated with compound in DMSO without the TSQ cocktail. This counter screen enabled evaluation of off-target effects. In this case, cell viability was measured by CelltiterGlo."}, "[1]": {"system": "U937 human histiocytic leukemia cell line", "test": "Cellular assay: inhibition of TSQ induced necroptosis (CellTitre-Glo)", "conditions": "Homo sapiens, U-937; U937 cells, TSQ cocktail, 48 hours, Table 38; read-out: Inhibition of TSQ-induced necroptosis (IC50 cell-based assay)", "protocol": "[…] ASSAY: Screening compounds for inhibition of TSQ induced necroptosis, 384 well plate format.\nCell Line ID: U937 human histiocytic leukemia cell line.\nCell Concentration (cells/well): Final cell density is 20,000 cells per well.\nCell growth medium: HT-RPMI medium+7.4% Fetal Bovine Serum (FBS). Cells are cultured in Corning 150 cm^z tissue culture flasks with vented caps at 37° C./5% CO2.\nIncubation: Plates were incubated at 37° C./5% CO2 in a humidified incubator for 48 hours following addition of compounds and death stimuli (TSQ cocktail).\nCompound concentration: 36 μM starting concentration, 1:3 dilution, 10 point\nDMSO final concentration (% v/v): 0.3%.\nCompounds in TSQ cocktail (T: TNF; S: Smac mimetic; Q: Q-VD-OPh) and their final concentrations: • hTNF-Fc (100 ng/ml)—produced by standard procedures as shown in Bossen et al., J Biol Chem, 2006, 281(20), 13964-13971. • Compound A (500 nM)—Smac mimetic, Tetralogic and SYNthesis med chem • Q-VD-OPh (10 μM)—MP Biomedicals\nThe cellular assay was carried out according to the following steps: • 1. Each well was prepared by sequential addition of: • a. DMSO (control; columns 1-2 and 23-24) or compound in DMSO—addition was performed using acoustic transfer of nl volumes of stock compound to give final test concentrations of 36, 12, 4, 1.3, 0.44, 0.148, 0.049, 0.016, 0.005 and 0.002 μM. All wells were backfilled with DMSO to a final total volume in the well of 100 nl. • b. Following compound/DMSO addition in step (a), 40 μL of cell suspension (5×10^5 cells/mL) was added to provide a final cell concentration of 20,000 cells per well, and • c. Following cell addition in step (b), 10 μL of 5×TSQ cocktail (except to positive controls; […]) was added to each well. • 2. After 48 hours, plate was removed from the 37° C. incubator and equilibrated to room temperature for 45 minutes. • 3. 15 μL of room temperature CellTitre-Glo2™ (Promega™) was added to each well. • 4. Shook plates for 2 minutes (˜600 rpm) and incubated at room temperature for 15 minutes to allow signal to stabilise. • 5. Read luminescence readout on a plate reader.\nPercent viability was calculated for each compound according to equation (2):\n[formula] • wherein • RawData is the readout of any cell containing a compound of the invention • TA is the total activity provided by the luminescence readout from DMSO only wells (columns 2 and 24)=100% viability • NSA is the non-specific activity provided by DMSO+TSQ wells (columns 1 and 23)=0% viability\nCurve fitting: 10-point titration curves are fitted with the 4-parameter logistic nonlinear regression model and the IC50 reported is the inflection point of the curve.\nAnalysis: Data was loaded into Dotmatics™ and visualised using the Tibco® Spotfire™ software. 10 points titration curves were fitted with the 4-parameter logistic nonlinear regression model and the IC50 reported reflect the inflection point of the curve for curve fitting.\nAssay involving the TSQ cocktail (T: TNF; S: Smac mimetic; Q: Q-VD-OPh): TSQ treatment ensures that cells specifically undergo necroptotic cell death. TNF activates the TNF receptor, Smac mimetic directs the signal away from proinflammatory signaling and toward the RIP1/RIP3-mediated cell death pathways, and Q-VD-OPh ensures that the apoptotic response is blocked leaving only the programmed necrosis response. The compounds' activity (solution in DMSO) tested in this TSQ-induced assay was evaluated by determining the number of viable cells in culture by measuring the amount of ATP present as measured by CelltiterGlo."}, "MLKL (full length)": {"molecular_target": "MLKL (full length) (Homo sapiens (Human), UniProt Q8NB16)", "sequence (Q8NB16 whole entry)": "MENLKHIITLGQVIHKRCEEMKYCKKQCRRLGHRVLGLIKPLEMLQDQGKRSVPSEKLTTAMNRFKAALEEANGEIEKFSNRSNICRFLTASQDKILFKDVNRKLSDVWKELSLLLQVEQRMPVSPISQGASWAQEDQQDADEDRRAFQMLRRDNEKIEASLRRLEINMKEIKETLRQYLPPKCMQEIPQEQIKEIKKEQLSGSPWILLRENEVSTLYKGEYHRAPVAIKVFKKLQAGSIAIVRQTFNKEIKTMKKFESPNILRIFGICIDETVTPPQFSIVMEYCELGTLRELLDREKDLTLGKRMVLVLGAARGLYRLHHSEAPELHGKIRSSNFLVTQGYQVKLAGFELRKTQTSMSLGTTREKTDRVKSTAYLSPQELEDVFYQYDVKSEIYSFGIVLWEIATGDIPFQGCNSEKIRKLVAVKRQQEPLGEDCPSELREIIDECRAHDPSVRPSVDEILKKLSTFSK", "test": "KINOMEscan binding assay, MLKL (full length)", "conditions": "Table 36", "protocol": "Kinase assays. For most assays, kinase-tagged T7 phage strains were grown in parallel in 24-well blocks in an E. coli host derived from the BL21 strain. E. coli were grown to log-phase and infected with T7 phage from a frozen stock (multiplicity of infection=0.4) and incubated with shaking at 32° C. until lysis (90-150 minutes).\nThe Hill Slope was set to −1."}}, "note": "pIC50, pKd: −log10 of the molar value."}
{"compound": "Cc1ncsc1-c1ccc(CNC(=O)[C@@H]2C[C@@H](O)CN2C(=O)[C@@H](NC(=O)CCn2ccc(Nc3[nH]nc(-c4ccc(NS(=O)(=O)C(F)F)c(O[C@@H](C)c5ccc(F)cc5)c4)c3C(N)=O)n2)C(C)(C)C)cc1", "note": "[Compound 1032, 3-[4-(difluoromethanesulfonamido)-3-[(1S)-1-(4-fluorophenyl)ethoxy]phenyl]-5-{[1-(2-{[(2S)-1-[(2S,4R)-4-hydroxy-2-({[4-(4-methyl-1,3-thiazol-5-yl)phenyl]methyl}carbamoyl)pyrrolidin-1-yl]-3,3-dimethyl-1-oxobutan-2-yl]carbamoyl}ethyl)-1H-pyrazol-3-yl]amino}-1H-pyrazole-4-carboxamide]", "values": [{"measurement": "pIC50", "setting": "U937 cells", "result": "< 5.00"}, {"measurement": "pIC50", "setting": "[1]", "result": "< 5.00"}, {"measurement": "pKd", "setting": "MLKL (full length)", "result": "> 8.00"}]}
{"compound": "Cc1ncsc1-c1ccc(CNC(=O)[C@@H]2C[C@@H](O)CN2C(=O)[C@@H](NC(=O)CCCn2ccc(Nc3[nH]nc(-c4ccc(NS(=O)(=O)C(F)F)c(O[C@@H](C)c5ccc(F)cc5)c4)c3C(N)=O)n2)C(C)(C)C)cc1", "note": "[Compound 1033, 3-[4-(difluoromethanesulfonamido)-3-[(1S)-1-(4-fluorophenyl)ethoxy]phenyl]-5-{[1-(3-{[(2S)-1-[(2S,4R)-4-hydroxy-2-({[4-(4-methyl-1,3-thiazol-5-yl)phenyl]methyl}carbamoyl)pyrrolidin-1-yl]-3,3-dimethyl-1-oxobutan-2-yl]carbamoyl}propyl)-1H-pyrazol-3-yl]amino}-1H-pyrazole-4-carboxamide]", "values": [{"measurement": "pIC50", "setting": "U937 cells", "result": "< 5.00"}, {"measurement": "pIC50", "setting": "[1]", "result": "5.00 to 6.00"}, {"measurement": "pKd", "setting": "MLKL (full length)", "result": "> 8.00"}]}
{"compound": "CCS(=O)(=O)Nc1ccc(-c2n[nH]c(Nc3ccc(C(=O)OCCCCC(=O)N[C@H](C(=O)N4C[C@H](O)C[C@H]4C(=O)NCc4ccc(-c5scnc5C)cc4)C(C)(C)C)cn3)c2C(N)=O)cc1", "note": "[Compound 1060, 4-{[(2S)-1-[(2S,4R)-4-hydroxy-2-({[4-(4-methyl-1,3-thiazol-5-yl)phenyl]methyl}carbamoyl)pyrrolidin-1-yl]-3,3-dimethyl-1-oxobutan-2-yl]carbamoyl}butyl 6-{[4-carbamoyl-3-(4-ethanesulfonamidophenyl)-1H-pyrazol-5-yl]amino}pyridine-3-carboxylate]", "values": [{"measurement": "pIC50", "setting": "U937 cells", "result": "< 5.00"}, {"measurement": "pIC50", "setting": "[1]", "result": "> 6.00"}, {"measurement": "pKd", "setting": "MLKL (full length)", "result": "6.00 to 8.00"}]}
{"compound": "Cc1ncsc1-c1ccc(CNC(=O)[C@@H]2C[C@@H](O)CN2C(=O)[C@@H](NC(=O)COCCOc2cc(Nc3[nH]nc(-c4ccc(NS(=O)(=O)C(F)F)cc4)c3C(N)=O)ccn2)C(C)(C)C)cc1", "note": "[Compound 1012, 3-[4-(difluoromethanesulfonamido)phenyl]-5-({2-[2-({[(2S)-1-[(2S,4R)-4-hydroxy-2-({[4-(4-methyl-1,3-thiazol-5-yl)phenyl]methyl}carbamoyl)pyrrolidin-1-yl]-3,3-dimethyl-1-oxobutan-2-yl]carbamoyl}methoxy)ethoxy]pyridin-4-yl}amino)-1H-pyrazole-4-carboxamide]", "values": [{"measurement": "pIC50", "setting": "U937 cells", "result": "< 5.00"}, {"measurement": "pIC50", "setting": "[1]", "result": "< 5.00"}, {"measurement": "pKd", "setting": "MLKL (full length)", "result": "> 8.00"}]}
{"compound": "CCS(=O)(=O)Nc1ccc(-c2n[nH]c(Nc3cnc(OCCCCC(=O)N[C@H](C(=O)N4C[C@H](O)C[C@H]4C(=O)NCc4ccc(-c5scnc5C)cc4)C(C)(C)C)cn3)c2C(N)=O)cc1", "note": "[Compound 1022, 3-(4-ethanesulfonamidophenyl)-5-{[5-(4-{[(2S)-1-[(2S,4R)-4-hydroxy-2-({[4-(4-methyl-1,3-thiazol-5-yl)phenyl]methyl}carbamoyl)pyrrolidin-1-yl]-3,3-dimethyl-1-oxobutan-2-yl]carbamoyl}butoxy)pyrazin-2-yl]amino}-1H-pyrazole-4-carboxamide]", "values": [{"measurement": "pIC50", "setting": "U937 cells", "result": "< 5.00"}, {"measurement": "pIC50", "setting": "[1]", "result": "> 6.00"}, {"measurement": "pKd", "setting": "MLKL (full length)", "result": "> 8.00"}]}
{"compound": "Cc1ncsc1-c1ccc(CNC(=O)[C@@H]2C[C@@H](O)CN2C(=O)[C@@H](NC(=O)CCCCOc2cc(Nc3[nH]nc(-c4ccc(NS(=O)(=O)C(F)F)cc4)c3C(N)=O)ccn2)C(C)(C)C)cc1", "note": "[Compound 1017, 3-[4-(difluoromethanesulfonamido)phenyl]-5-{[2-(4-{[(2S)-1-[(2S,4R)-4-hydroxy-2-({[4-(4-methyl-1,3-thiazol-5-yl)phenyl]methyl}carbamoyl)pyrrolidin-1-yl]-3,3-dimethyl-1-oxobutan-2-yl]carbamoyl}butoxy)pyridin-4-yl]amino}-1H-pyrazole-4-carboxamide]", "values": [{"measurement": "pIC50", "setting": "U937 cells", "result": "< 5.00"}, {"measurement": "pIC50", "setting": "[1]", "result": "5.00 to 6.00"}, {"measurement": "pKd", "setting": "MLKL (full length)", "result": "> 8.00"}]}
{"compound": "Cc1ncsc1-c1ccc(CNC(=O)[C@@H]2C[C@@H](O)CN2C(=O)[C@@H](NC(=O)c2cccc(COc3ccc(Nc4[nH]nc(-c5ccc(NS(=O)(=O)C(F)F)c(O[C@@H](C)c6ccc(F)cc6)c5)c4C(N)=O)nc3)c2)C(C)(C)C)cc1", "note": "[Compound 1031, 3-(4-(difluoromethylsulfonamido)-3-((S)-1-(4-fluorophenyl)ethoxy)phenyl)-5-((5-((3-(((S)-1-((2S,4R)-4-hydroxy-2-((4-(4-methylthiazol-5-yl)benzyl)carbamoyl)pyrrolidin-1-yl)-3,3-dimethyl-1-oxobutan-2-yl)carbamoyl)benzyl)oxy)pyridin-2-yl)amino)-1H-pyrazole-4-carboxamide]", "values": [{"measurement": "pIC50", "setting": "U937 cells", "result": "5.00 to 6.00"}, {"measurement": "pIC50", "setting": "[1]", "result": "> 6.00"}]}
{"compound": "CCS(=O)(=O)Nc1ccc(-c2n[nH]c(Nc3ccnc(OCCOCCOCCOCCNC(=O)COc4cccc5c4C(=O)N(C4CCC(=O)NC4=O)C5=O)c3)c2C(N)=O)cc1", "note": "(centres unmarked) [Compound 1002, 5-({2-[2-(2-{2-[2-(2-{[2-(2,6-dioxopiperidin-3-yl)-1,3-dioxo-2,3-dihydro-1H-isoindol-4-yl]oxy}acetamido)ethoxy]ethoxy}ethoxy)ethoxy]pyridin-4-yl}amino)-3-(4-ethanesulfonamidophenyl)-1H-pyrazole-4-carboxamide]", "values": [{"measurement": "pIC50", "setting": "U937 cells", "result": "< 5.00"}, {"measurement": "pIC50", "setting": "[1]", "result": "< 5.00"}]}
{"compound": "Cc1ncsc1-c1ccc(CNC(=O)[C@@H]2C[C@@H](O)CN2C(=O)[C@@H](NC(=O)CCCCCCOc2ccc(Nc3[nH]nc(-c4ccc(NS(=O)(=O)C(F)F)c(O[C@@H](C)c5ccc(F)cc5)c4)c3C(N)=O)nc2)C(C)(C)C)cc1", "note": "[Compound 1059, 3-[4-(difluoromethanesulfonamido)-3-[(1S)-1-(4-fluorophenyl)ethoxy]phenyl]-5-({5-[(6-{[(2S)-1-[(2S,4R)-4-hydroxy-2-({[4-(4-methyl-1,3-thiazol-5-yl)phenyl]methyl}carbamoyl)pyrrolidin-1-yl]-3,3-dimethyl-1-oxobutan-2-yl]carbamoyl}hexyl)oxy]pyridin-2-yl}amino)-1H-pyrazole-4-carboxamide]", "values": [{"measurement": "pIC50", "setting": "U937 cells", "result": "5.00 to 6.00"}, {"measurement": "pIC50", "setting": "[1]", "result": "> 6.00"}]}
{"compound": "CCS(=O)(=O)Nc1ccc(-c2n[nH]c(Nc3ccnc(OCCOCCOCCNC(=O)COc4cccc5c4C(=O)N(C4CCC(=O)NC4=O)C5=O)c3)c2C(N)=O)cc1", "note": "(centres unmarked) [Compound 1004, 5-((2-(2-(2-(2-(2-((2-(2,6-dioxopiperidin-3-yl)-1,3-dioxoisoindolin-4-yl)oxy)acetamido)ethoxy)ethoxy)ethoxy)pyridin-4-yl)amino)-3-(4-(ethylsulfonamido)phenyl)-1H-pyrazole-4-carboxamide]", "values": [{"measurement": "pIC50", "setting": "U937 cells", "result": "< 5.00"}, {"measurement": "pIC50", "setting": "[1]", "result": "< 5.00"}]}
